Measured values from patent US6339045B1, “N-(unsubstituted or substituted)-4-substituted-6-(unsubstituted or substituted)phenoxy-2-pyridinecarboxamides or thiocarboxamides, processes for producing the same, and herbicides” (Kureha Kagaku Kogyo Kabushiki Kaisha, priority 1995, dated 2002).

Key:
Experiment in all cases: Herbicidal effect by foliage and soil treatment
Assay type in all cases: in vivo
Conditions in all cases: 10 g ai/10a, evaluated after 14 days
[1] = test system: field bindweed (Convolvulus arvensis)
Procedure, shortened: (§1)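 Scores are ratings of growth versus untreated plants 14 days after treatment. Plants grown to cotyledonal–bifoliate stage in granular soil at 19 to 25° C received a foliage-and-soil spray of test solution containing Tween 20, applied at a set compound amount.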

[2] = test system: common blackjack (Bidens pilosa)
Procedure, shortened: as §1

[3] = test system: wild chamomile (Matricaria chamomilla)
Procedure, shortened: as §1

[4] = test system: common chickweed (Stellaria media)
Procedure, shortened: as §1

[5] = test system: sicklepod (Cassia obtusifolia)
Procedure, shortened: as §1

[6] = test system: kediock (Sinapis arvensis)
Procedure, shortened: as §1

[7] = test system: black nightshade (Solanum nigrum)
Procedure, shortened: as §1

[8] = test system: velvetleaf (Abutilon theophrasti)
Procedure, shortened: as §1

[9] = test system: ivyleafspeedwell (Veronica hederaefolia)
Procedure, shortened: as §1

[10] = test system: redroot pigweed (Amaranthus retroflexus)
Procedure, shortened: as §1

[11] = test system: cleavers (Galium aparine)
Procedure, shortened: as §1

Structure (SMILES)	herbicidal activity rating, CA (Convolvulus arvensis) [1]	herbicidal activity rating, BP (Bidens pilosa) [2]	herbicidal activity rating, MC (Matricaria chamomilla) [3]	herbicidal activity rating, SM (Stellaria media) [4]	herbicidal activity rating, CO (Cassia obtusifolia) [5]	herbicidal activity rating, SA (Sinapis arvensis) [6]	herbicidal activity rating, SN (Solanum nigrum) [7]	herbicidal activity rating, AT (Abutilon theophrasti) [8]	herbicidal activity rating, VH (Veronica hederaefolia) [9]	herbicidal activity rating, AR (Amaranthus retroflexus) [10]	herbicidal activity rating, GA (Galium aparine) [11]
COc1cc(Oc2cccc(C(F)(F)F)c2)nc(C(=O)NC2CCCCC2)c1 [Compound I-43]	5 (percentage of weeds killed was not less than 80%)	4 (percentage of weeds killed was not less than 60% and less than 80%)	4 (percentage of weeds killed was not less than 60% and less than 80%)	5 (percentage of weeds killed was not less than 80%)	5 (percentage of weeds killed was not less than 80%)	5 (percentage of weeds killed was not less than 80%)	5 (percentage of weeds killed was not less than 80%)	4 (percentage of weeds killed was not less than 60% and less than 80%)	5 (percentage of weeds killed was not less than 80%)	5 (percentage of weeds killed was not less than 80%)	5 (percentage of weeds killed was not less than 80%)
COc1cc(Oc2cccc(C(F)(F)F)c2)nc(C(=O)NCCSCC(F)(F)F)c1 [Compound I-94]	5 (percentage of weeds killed was not less than 80%)	4 (percentage of weeds killed was not less than 60% and less than 80%)	4 (percentage of weeds killed was not less than 60% and less than 80%)	4 (percentage of weeds killed was not less than 60% and less than 80%)	5 (percentage of weeds killed was not less than 80%)	5 (percentage of weeds killed was not less than 80%)	5 (percentage of weeds killed was not less than 80%)	5 (percentage of weeds killed was not less than 80%)	5 (percentage of weeds killed was not less than 80%)	5 (percentage of weeds killed was not less than 80%)	5 (percentage of weeds killed was not less than 80%)
CNC(=O)c1cc(OC)cc(Oc2cccc(C(F)(F)F)c2)n1 [Compound I-46]	5 (percentage of weeds killed was not less than 80%)	3 (percentage of weeds killed was not less than 40% and less than 60%)	3 (percentage of weeds killed was not less than 40% and less than 60%)	5 (percentage of weeds killed was not less than 80%)	5 (percentage of weeds killed was not less than 80%)	5 (percentage of weeds killed was not less than 80%)	5 (percentage of weeds killed was not less than 80%)	4 (percentage of weeds killed was not less than 60% and less than 80%)	5 (percentage of weeds killed was not less than 80%)	5 (percentage of weeds killed was not less than 80%)	5 (percentage of weeds killed was not less than 80%)
CCCCCNC(=O)c1cc(OC)cc(Oc2cccc(C(F)(F)F)c2)n1 [Compound I-52]	5 (percentage of weeds killed was not less than 80%)	3 (percentage of weeds killed was not less than 40% and less than 60%)	3 (percentage of weeds killed was not less than 40% and less than 60%)	5 (percentage of weeds killed was not less than 80%)	4 (percentage of weeds killed was not less than 60% and less than 80%)	5 (percentage of weeds killed was not less than 80%)	5 (percentage of weeds killed was not less than 80%)	4 (percentage of weeds killed was not less than 60% and less than 80%)	5 (percentage of weeds killed was not less than 80%)	5 (percentage of weeds killed was not less than 80%)	5 (percentage of weeds killed was not less than 80%)
COc1cc(Oc2cccc(C(F)(F)F)c2)nc(C(=O)NOCC2CC2)c1 [Compound I-107]	4 (percentage of weeds killed was not less than 60% and less than 80%)	3 (percentage of weeds killed was not less than 40% and less than 60%)	3 (percentage of weeds killed was not less than 40% and less than 60%)	5 (percentage of weeds killed was not less than 80%)	5 (percentage of weeds killed was not less than 80%)	5 (percentage of weeds killed was not less than 80%)	5 (percentage of weeds killed was not less than 80%)	4 (percentage of weeds killed was not less than 60% and less than 80%)	5 (percentage of weeds killed was not less than 80%)	5 (percentage of weeds killed was not less than 80%)	5 (percentage of weeds killed was not less than 80%)
CCCNC(=S)c1cc(OC)cc(Oc2cccc(C(F)(F)F)c2)n1 [Compound I-34, N-(n-propyl)-4-methoxy-6-{3-(trifluoromethyl)phenoxy}-2-pyridine thiocarboxamide]	4 (percentage of weeds killed was not less than 60% and less than 80%)	5 (percentage of weeds killed was not less than 80%)	5 (percentage of weeds killed was not less than 80%)	5 (percentage of weeds killed was not less than 80%)	5 (percentage of weeds killed was not less than 80%)	5 (percentage of weeds killed was not less than 80%)	5 (percentage of weeds killed was not less than 80%)	5 (percentage of weeds killed was not less than 80%)	5 (percentage of weeds killed was not less than 80%)	5 (percentage of weeds killed was not less than 80%)	5 (percentage of weeds killed was not less than 80%)
